Data on 2 compounds can be found in US10702556B2, “Compositions and methods for inducing angiogenesis” (MINOVIA THERAPEUTICS LTD., priority 2012, dated 2020).

This assay has as its system mouse aortic rings. The assay can be described thus: Mouse aortic ring sprouting (ex-vivo angiogenesis). The class given is cell-based.

Description: Thoracic aorta were removed from female C57/BL mice and cut into 0.5 mm rings. Aortic rings were incubated in serum-free medium and either left untreated or treated with 0.5 μM Rotenone for 4 hours. To assess mitochondria effect on sprouting of aortic rings, half of the non-treated rings were washed and incubated with 25 μg of C57/BL mouse placental mitochondria in 2 ml serum-free medium. After 24 hours the rings were embedded in rat tail collagen, one ring per well in a 96 wells plate. After 8 days in culture the level of sprouting was evaluated by counting the number of vessels per ring.
The effect of VEGF, mitochondria and mitochondria+VEGF on sprouting of aortic rings in-vitro was examined Mouse aortic rings were prepared as described in example 7 and were either left un-treated (NT), treated with 25 μg mouse placental mitochondria in 2 ml OptiMem medium for 24 h (Mito), incubated in OptiMem medium containing 2.5% FBS and 30 ng/ml mouse VEGF for 48 h (VEGF) or treated with both mitochondria and VEGF (VEGF+Mito). The number of new blood vessels sprouting from the aortic rings was counted on day 8.
Mouse aortic rings were prepared as described in example 7 and were either left un-treated or treated with increasing amounts (2-350 μg) of mouse placental mitochondria in 2 ml OptiMem medium for 24 h. The number of new blood vessels sprouting from the aortic rings was counted on day 7.
The effect of mitochondria on the number of blood vessels was evaluated in a mouse aortic ring model. Mouse aortic rings were prepared as described in example 7 and were either left un-treated (Control), treated for 24 h with 25 μg of mouse placental mitochondria (Mito), treated with mitochondria that were inhibited by 2 μM of mitochondria complex I inhibitor Rotenone or treated with mitochondria that were inhibited with 5 μM of the ATP Synthase inhibitor Oligomycin for 24 h. The number of new blood vessels sprouting from the aortic rings was counted on day 8.

For the compound VEGF, the “number of new blood vessels sprouting from the aortic rings, comparison between treated groups” value (25 μg mitochondria 24 h, 30 ng/ml mouse VEGF 48 h, or both, day 8) was “no significant difference”.

As for `C=C(C)[C@H]1Cc2c(ccc3c2O[C@@H]2COc4cc(OC)c(OC)cc4[C@@H]2C3=O)O1` [Rotenone], the “number of vessels per ring (sprouting)” value (0.5 μM Rotenone for 4 hours, 8 days in culture) is on record as “blocked the sprouting almost completely”.
